Laboratory results as given in paper PMC3922157 (Journal of Antimicrobial Chemotherapy, 2013).
Like-named read-outs stand apart in the source and are kept apart here.

Legend:
[1] = tested on: N=C(N)c1ccc(OCCCCCOc2ccc(C(=N)N)cc2)cc1; assay: cells, lysate or membranes; conditions: pH 7.3
HAPT1 [2] = biological target: T1, HAPT1 (Trypanosoma brucei brucei, UniProt Q6ZXT3); assay: [3H]pentamidine high-affinity transport, bloodstream forms
HAPT1 [3] = biological target: T1, HAPT1; set-up: endogenous in cells; host or cells: bloodstream-form T. b. brucei Lister 427 derivatives (s427 WT, TbAT1-KO, 2T1: endogenous AQP2; B48/AQP2: wild-type TbAQP2 from vector pHDK21, derived from pHD1336); conditions: cited from earlier work
HAPT1 [4] = biological target: T1, HAPT1; assay: cell-based; type: cell-based, T. b. brucei
TbAQP2 [5] = biological target: T2, TbAQP2 (Trypanosoma brucei brucei, UniProt Q6ZXT3); assay: cell-based
HAPT1 [6] = biological target: T1, HAPT1; assay: cell-based; type: cell-based, T. b. gambiense
LAPT1 [7] = assay: [3H]pentamidine low-affinity transport, bloodstream forms; type: cell-based, T. b. brucei; conditions: for Km: read-out: LAPT1 pentamidine Km
[8] = tested on: procyclic T. b. gambiense 386MR; type: cell-based
[9] = tested on: procyclic T. b. brucei 247MR; type: cell-based
[10] = tested on: bloodstream-form T. b. brucei; assay: Alamar blue drug susceptibility assay, bloodstream-form trypanosomes; type: cell-based; conditions: for Increase in susceptibility on expression of TbAT1: TbAT1 expressed in B48 (Figure S6); for EC50: Trypanosoma brucei
Protocol: (§1) Drug susceptibilities of the bloodstream-form trypanosomes[47] and L. mexicana promastigotes[48] were determined using the Alamar blue assay exactly as described previously, measuring fluorescence in 96-well plates with a FLUOstar Optima (BMG Labtech, Durham, NC, USA) at wavelengths of 544 nm for excitation and 620 nm for emission. EC50 values were calculated by non-linear regression using an equation for a sigmoidal dose–response curve with variable slope (GraphPad Prism 5.0; GraphPad Software Inc., San Diego, CA, USA).

TbAQP3 = biological target: T3, TbAQP3 (Trypanosoma brucei brucei, UniProt Q6ZXT2); type: cell-based, T. b. brucei; conditions: 100 nM [3H]pentamidine over 5 min; TbAQP3-transfected promastigotes
T3 construct: expressed in transfected cells; host or cells: Leishmania mexicana promastigotes, pNUS vector

LAPT1 [11] = conditions: cited from earlier work
T. b. gambiense = conditions: cited from earlier work
[12] = tested on: bloodstream-form T. b. brucei; conditions: cited from earlier work
[13] = tested on: Leishmania mexicana promastigotes; assay: Alamar blue drug susceptibility assay, L. mexicana promastigotes expressing T. brucei aquaporins; type: cell-based; conditions: for Sensitization by expression of TbAQP2: L. mexicana promastigotes expressing TbAQP2 vs empty-vector control
Protocol: as §1
TbAQP2 and TbAQP3 were amplified from genomic DNA by PCR using Phusion polymerase (Thermo Scientific) and subcloned into the pNUS vector for expression in Leishmania.[49] The construct was verified by sequencing before transfection into L. mexicana promastigotes using an Amaxa Nucleofector (program U-33).

TbAQP2 [14] = biological target: T2, TbAQP2
LAPT1 [15] = conditions: 1 μM [3H]pentamidine; for Km: read-out: LAPT1 Km
LAPT1 [16] = conditions: 1 μM [3H]pentamidine; for Km: read-out: LAPT1 Km; remark: listed apart in the source
T. b. brucei = conditions: cited from earlier work
T. b. rhodesiense = conditions: cited from earlier work; note: key: highly sensitive (+++); ++: indicated on a relative scale; +: indicated on a relative scale; +/−: indicated on a relative scale; −: indicated on a relative scale; highly resistant to pentamidine or melaminophenyl arsenicals (−−−)
T. b. brucei 247MR = tested on: T. b. brucei 247MR; set-up: method as in PMID 9225768; conditions: cited from earlier work
[17] = B48 + TbAQP2 vs B48 empty vector (Figure 1)
[18] = P1000 + TbAQP2 vs P1000 empty vector (Figure 1)
Throughout, for susceptibility: key: highly sensitive (+++); ++: indicated on a relative scale; +: indicated on a relative scale; +/−: indicated on a relative scale; −: indicated on a relative scale; highly resistant to pentamidine or melaminophenyl arsenicals (−−−).

T1 sequence (Q6ZXT3 whole entry): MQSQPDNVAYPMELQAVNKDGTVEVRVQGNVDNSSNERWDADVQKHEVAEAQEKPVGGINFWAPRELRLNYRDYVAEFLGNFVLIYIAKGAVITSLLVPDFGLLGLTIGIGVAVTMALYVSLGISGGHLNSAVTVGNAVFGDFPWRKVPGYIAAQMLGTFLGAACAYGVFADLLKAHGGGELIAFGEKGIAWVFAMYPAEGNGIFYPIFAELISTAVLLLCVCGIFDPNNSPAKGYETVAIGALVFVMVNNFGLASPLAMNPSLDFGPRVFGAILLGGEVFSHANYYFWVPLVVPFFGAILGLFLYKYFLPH
T2 sequence (Q6ZXT3 whole entry): as above
T3 sequence (Q6ZXT2 whole entry): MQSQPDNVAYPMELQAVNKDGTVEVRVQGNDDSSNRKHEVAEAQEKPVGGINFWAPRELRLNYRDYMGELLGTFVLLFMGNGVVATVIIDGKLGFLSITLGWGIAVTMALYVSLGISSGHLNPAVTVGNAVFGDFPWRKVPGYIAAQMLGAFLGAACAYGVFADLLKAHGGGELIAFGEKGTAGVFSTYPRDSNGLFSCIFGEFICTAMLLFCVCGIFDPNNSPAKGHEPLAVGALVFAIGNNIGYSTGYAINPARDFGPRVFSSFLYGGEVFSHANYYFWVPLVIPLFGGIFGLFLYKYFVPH

HAPT1 (Trypanosoma brucei brucei)
Km ([1]; other: B48/AQP2 bloodstream forms): 0.046 ± 0.014 µM

N=C(N)c1ccc(OCCCOc2ccc(C(=N)N)cc2)cc1 [propamidine]
Ki (HAPT1 [2]): 15.2 ± 1.6 µM
Ki (HAPT1 [3]; TbAT1-KO bloodstream forms, ref Matovu et al. 14): 13 ± 3 µM
Ki (HAPT1 [3]; WT s427 bloodstream forms, ref De Koning 17): 4.6 ± 0.7 µM
Ki (HAPT1 [4]): 14 ± 2 µM
Ki (TbAQP2 [5]): 8.1 ± 0.8 µM
Ki (HAPT1 [6]): 22 ± 6 µM
IC50, inhibition of [3H]pentamidine uptake (LAPT1 [7]; aqp2 null cells, 30 nM [3H]pentamidine, 1 mM adenosine): insensitive

Cl.Cl.NCCS[As](SCCN)c1ccc(Nc2nc(N)nc(N)n2)cc1 [Cymelarsan]
Resistance relative to parental line [8]: 83 fold
Resistance relative to parental line [9]: 755 fold
Reversal of resistance on expression of TbAQP2 [10, 17]: 16.7 fold
Reversal of resistance on expression of TbAQP2 [10, 18]: 15.0 fold
Difference in susceptibility ([10]; aqp2 null vs aqp2 null expressing WT AQP2, P < 0.001): 4.1 fold
Difference in susceptibility ([10]; aqp2 null vs aqp2 null expressing chAQP2/3, P < 0.05): 1.4 fold

Nc1ncnc2c1ncn2[C@@H]1O[C@H](CO)C[C@H]1O [cordycepin, 3′-deoxyadenosine]
Increase in susceptibility on expression of TbAT1 ([10]; P < 0.001): > 20 fold

N=C(N)c1ccc(OCCCCCOc2ccc(C(=N)N)cc2)cc1 [pentamidine]
Uptake of [3H]pentamidine compared with control (TbAQP3): not significantly different
IC50 (HAPT1 [2]): 0.06 ± 0.017 µM
Reduction of [3H]pentamidine uptake (HAPT1 [2]; 50 nM [3H]pentamidine, B48 compared with TbAT1-KO control): 15.5 fold
Increase of [3H]pentamidine uptake on expression of TbAQP2 (HAPT1 [2]; 50 nM pentamidine, B48 + TbAQP2 vs B48): 27.7 fold
Km (LAPT1 [11]; read-out: LAPT1 pentamidine Km, B48 bloodstream forms, ref Bridges et al. 16): 56 ± 7 µM
Km (LAPT1 [11]; read-out: LAPT1 pentamidine Km, TbAT1-KO bloodstream forms, ref Matovu et al. 14): 50 ± 17 µM
Km (LAPT1 [11]; read-out: LAPT1 pentamidine Km, WT s427 bloodstream forms, ref De Koning 17): 56 ± 8 µM
Km (LAPT1 [11]; read-out: published pentamidine Km for LAPT1): 56.2 ± 8.3 µM
HAPT1 Vmax (HAPT1 [4]; STIB 247WT procyclics, 25 nM [3H]pentamidine): 0.008 ± 0.002 pmol/10^7 cells/s
Susceptibility (T. b. gambiense): +++ and +/−
Loss of sensitivity on homozygous deletion of TbAT1 [12]: 2.5–3 fold
Sensitization by expression of TbAQP2 [13]: 40 fold
Sensitization by expression of TbAQP3 ([13]; L. mexicana promastigotes expressing TbAQP3, two independent clones): 1.5–2.5 fold
Rate of [3H]pentamidine uptake (TbAQP2 [14]; 50 nM [3H]pentamidine in the presence of 1 mM unlabelled pentamidine): 0.00026 ± 1.8 × 10^−6 pmol/10^7 cells/s
Rate of [3H]pentamidine uptake (TbAQP2 [14]; 50 nM [3H]pentamidine, over 15 s): 0.032 ± 0.002 pmol/10^7 cells/s
Increase of [3H]pentamidine uptake (TbAQP2 [14]; 100 nM [3H]pentamidine over 5 min, TbAQP2-expressing promastigotes vs control): ~15 fold
LAPT1 Vmax (LAPT1 [15]; STIB 247MR procyclics): 0.41 ± 0.10 pmol/10^7 cells/s
LAPT1 Vmax (LAPT1 [15]; STIB 247WT procyclics): 0.65 ± 0.17 pmol/10^7 cells/s
Km (LAPT1 [15]; STIB 247MR procyclics): 56 ± 19 µM
Km (LAPT1 [15]; STIB 247WT procyclics): 49 ± 19 µM
Resistance relative to parental line [8]: 90 fold
LAPT1 Vmax (LAPT1 [16]; STIB 386MR procyclics): 1.2 ± 0.4 pmol/10^7 cells/s
LAPT1 Vmax (LAPT1 [16]; STIB 386WT procyclics): 0.70 ± 0.15 pmol/10^7 cells/s
Km (LAPT1 [16]; STIB 386MR procyclics): 51 ± 2 µM
Km (LAPT1 [16]; STIB 386WT procyclics): 46 ± 9 µM
Resistance relative to parental line [9]: 74 fold
Susceptibility (T. b. brucei): +++ and +/− and ++ and −
Susceptibility (T. b. rhodesiense): +++ and −
Pentamidine resistance in vivo relative to parental line (T. b. brucei 247MR): > 50 fold
HAPT1 Vmax (HAPT1 [6]; STIB 386WT procyclics, 25 nM [3H]pentamidine): 0.007 ± 0.002 pmol/10^7 cells/s
Increase of [3H]pentamidine uptake on expression of TbAQP2 (LAPT1 [7]; 1 μM pentamidine, B48 + TbAQP2 vs B48): 2.5 fold
Uptake of [3H]pentamidine compared with control (LAPT1 [7]; 1 μM pentamidine, B48 compared with TbAT1-KO): not significantly different
IC50 (LAPT1 [7]; read-out: IC50, inhibition of [3H]pentamidine uptake, low-affinity phase, 2T1 control cells, 30 nM [3H]pentamidine, 1 mM adenosine, n = 3): 29.9 ± 4.3 µM
IC50 (LAPT1 [7]; read-out: IC50, inhibition of [3H]pentamidine uptake, aqp2 null cells, 30 nM [3H]pentamidine, 1 mM adenosine): 33.4 ± 9.5 µM
Km (LAPT1 [7]; B48/AQP2 bloodstream forms): 66 ± 1 µM
Km (LAPT1 [7]; P1000 bloodstream forms): 99 ± 24 µM
Reversal of resistance on expression of TbAQP2 [10, 17]: 50 fold
Reversal of resistance on expression of TbAQP2 [10, 18]: 240 fold
EC50 [10]: 0.158 ± 0.002 µM
EC50 ([10]; aqp2/aqp3 null expressing AQP3^sf2, P < 0.02): 0.131 ± 0.003 µM

C[C@@H]1[C@H](O)[C@@H](C)/C=C/C=C/C=C/C=C/C=C/C=C/C=C/[C@H](O[C@@H]2O[C@H](C)[C@@H](O)[C@H](N)[C@@H]2O)C[C@@H]2O[C@](O)(C[C@@H](O)C[C@@H](O)[C@H](O)CC[C@@H](O)C[C@@H](O)CC(=O)O[C@H]1C)C[C@H](O)[C@H]2C(=O)O [amphotericin B]
Sensitization by expression of TbAQP2 [13]: no statistically significant effect

N=C(N)c1ccc(/N=N/Nc2ccc(C(=N)N)cc2)cc1 [diminazene]
Ki (TbAQP2 [5]): 100 ± 21 µM
Sensitization by expression of TbAQP2 [13]: no statistically significant effect
Reversal of resistance on expression of TbAQP2 [10, 17]: not affected
Reversal of resistance on expression of TbAQP2 [10, 18]: not affected

Nc1ncnc2c1ccn2[C@@H]1O[C@H](CO)[C@@H](O)[C@H]1O [tubercidin, 7-deazaadenosine]
Increase in susceptibility on expression of TbAT1 ([10]; P < 0.001): > 20 fold
EC50 ([10]; s427 WT, read-out: EC50): 0.23 ± 0.03 µM
EC50 ([10]; tbat1−/− strain, read-out: EC50): 2.65 ± 0.23 µM
Decrease in susceptibility ([10]; tbat1−/− strain relative to s427 WT): 10 fold

TbAQP2 (Trypanosoma brucei brucei)
Km ([1]; other: L. mexicana/TbAQP2 promastigotes): 0.055 ± 0.004 µM

C[C@H]1O[C@@H](n2cnc3c(N)ncnc32)[C@H](O)[C@@H]1O [5′-deoxyadenosine]
Increase in susceptibility on expression of TbAT1 ([10]; P < 0.001): > 20 fold
